Read-outs that look alike come from different tables or passages of the source.
Columns and labels:
TEM-1 = TEM-1 (Escherichia coli, UniProt P62593); experiment: β-lactamase inhibitory activity, IC50 (nitrocefin hydrolysis); assay type: biochemical
Description: (§2) Enzymes were cloned in E. coli expression vector, expressed and purified in house using classical procedures. […] After 30 min of pre-incubation at room temperature, 15 μL of NCF (100 μM final) were finally added in each well. […] Enzyme activity was obtained by subtracting the background from the final signal, and was converted to enzyme inhibition using non inhibited wells. IC50 curves were fitted to a classical Langmuir equilibrium model with Hill slope using XLFIT (IDBS).

SHV-1 = SHV-1 (Klebsiella pneumoniae, UniProt P0AD64); experiment: as above; assay type: biochemical
Description: as §2

SHV-12 = SHV-12 (Klebsiella pneumoniae, UniProt P0AD64, E235K/G234S/L31Q); experiment: as above; assay type: biochemical
Description: (§3) Method 1: β-Lactamase Inhibitory Activity, Determination of IC50 (Table 1)
as §2

CTX-M-15 = CTX-M-15 (Escherichia coli, UniProt Q9EXV5); experiment: as above; assay type: biochemical
Description: as §3, §2

KPC-2 = KPC-2 (Klebsiella pneumoniae, UniProt Q9F663); experiment: as above; assay type: biochemical
Description: as §3, §2

SAU PC1 = SAU PC1 (Staphylococcus aureus, UniProt P00807); experiment: as above; assay type: biochemical, S. aureus
Description: as §3, §2

P99 ampC = P99 ampC (Enterobacter cloacae, UniProt P05364); experiment: as above; assay type: biochemical
Description: as §3, §2

PAE ampC = PAE ampC (Pseudomonas aeruginosa, UniProt P24735); experiment: as above; assay type: biochemical, P. aeruginosa
Description: as §2

OXA-1 = OXA-1 (Escherichia coli, UniProt P13661); experiment: as above; assay type: biochemical
Description: as §2

OXA-11 = OXA-11 (Pseudomonas aeruginosa, UniProt Q06778); experiment: as above; assay type: biochemical
Description: as §2

OXA-15 = OXA-15 (Pseudomonas aeruginosa, UniProt Q51574); experiment: as above; assay type: biochemical
Description: as §2

OXA-23 = OXA-23 (Acinetobacter baumannii, UniProt Q9L4P2); experiment: as above; assay type: biochemical
Description: as §2

OXA-40 = OXA-40 (Acinetobacter baumannii, UniProt Q8RLA6); experiment: as above; assay type: biochemical
Description: as §2

OXA-48 = OXA-48 (Klebsiella pneumoniae, UniProt Q6XEC0); experiment: as above; assay type: biochemical
Description: as §2

OXA-58 = OXA-58 (Acinetobacter baumannii, UniProt Q2TR58); experiment: as above; assay type: biochemical
Description: as §2

[1] = test system: Proteus mirabilis (PMI) isolates; experiment: microbe, parasite or virus in culture; assay type: cell-based; conditions: Proteus mirabilis, read-out: MIC
Method in brief: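 Broth microdilution in cation-adjusted Mueller-Hinton broth, inoculum 5.10^5 CFU/mL, 16-20 h at 35° C in ambient air, on genotyped isolates. Compound MIC, alone or with an antibacterial, taken visually as lowest concentration preventing growth; antibacterial MIC determined at each compound concentration.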

[2] = test system: Citrobacter murliniae (CMU) isolates; experiment: MIC of compounds alone and combined with antibacterials, broth microdilution (CLSI); assay type: cell-based; conditions: Citrobacter murliniae; CMU 210102; alone; read-out: MIC
Method in brief: (§1)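 CLSI broth microdilution: log-phase isolates at 5.10^5 CFU/mL in cation-adjusted Mueller-Hinton broth were exposed to compound alone or in combination with an antibacterial, 16-20 h at 35° C in ambient air. MIC is the lowest concentration preventing visible growth, including the antibacterial MIC at each compound concentration.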

[3] = test system: Providencia stuartii (PST) isolates; experiment: as above; assay type: cell-based; conditions: Providencia stuartii, read-out: MIC
Method in brief: as §1

[4] = test system: Salmonella typhimurium (STY) isolates; experiment: as above; assay type: cell-based; conditions: Salmonella enterica, TYPHIMURIUM; STY S3371; alone; read-out: MIC
Method in brief: as §1

[5] = strain PMI UFR132, compound alone
[6] = strain PST UFR98, compound alone

Sequence of CTX-M-15 (Q9EXV5 entry or part of it): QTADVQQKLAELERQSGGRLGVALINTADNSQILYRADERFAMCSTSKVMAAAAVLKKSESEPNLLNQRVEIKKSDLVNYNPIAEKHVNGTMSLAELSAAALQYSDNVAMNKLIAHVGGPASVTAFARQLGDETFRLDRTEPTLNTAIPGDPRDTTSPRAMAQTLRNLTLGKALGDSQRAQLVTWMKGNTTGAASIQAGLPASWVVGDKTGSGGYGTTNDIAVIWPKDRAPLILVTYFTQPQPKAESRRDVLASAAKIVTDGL
Sequence of OXA-40 (Q8RLA6 entry or part of it): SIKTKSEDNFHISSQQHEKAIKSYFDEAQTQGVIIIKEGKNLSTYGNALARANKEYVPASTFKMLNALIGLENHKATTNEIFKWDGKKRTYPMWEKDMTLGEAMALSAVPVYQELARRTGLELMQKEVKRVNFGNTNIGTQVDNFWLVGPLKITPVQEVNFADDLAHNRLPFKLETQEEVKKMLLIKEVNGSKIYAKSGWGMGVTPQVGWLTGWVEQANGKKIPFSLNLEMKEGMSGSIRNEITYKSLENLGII
Sequence of OXA-23 (Q9L4P2 18-273): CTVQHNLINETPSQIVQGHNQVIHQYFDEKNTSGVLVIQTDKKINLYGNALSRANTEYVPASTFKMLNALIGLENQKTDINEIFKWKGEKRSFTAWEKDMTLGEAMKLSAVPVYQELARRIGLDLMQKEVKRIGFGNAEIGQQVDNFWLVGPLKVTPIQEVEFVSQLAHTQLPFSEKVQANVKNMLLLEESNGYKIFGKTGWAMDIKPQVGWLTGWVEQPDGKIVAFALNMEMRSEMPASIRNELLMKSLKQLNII
Sequence of KPC-2 (Q9F663 25-293 limits assumed): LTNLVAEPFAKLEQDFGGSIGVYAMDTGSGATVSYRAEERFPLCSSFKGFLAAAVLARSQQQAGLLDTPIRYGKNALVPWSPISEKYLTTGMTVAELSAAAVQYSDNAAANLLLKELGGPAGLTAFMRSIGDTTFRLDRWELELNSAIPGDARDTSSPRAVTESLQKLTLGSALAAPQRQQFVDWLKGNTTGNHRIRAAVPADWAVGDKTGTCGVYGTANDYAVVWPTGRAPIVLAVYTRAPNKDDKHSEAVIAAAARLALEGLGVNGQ
Sequence of OXA-15 (Q51574 22-275): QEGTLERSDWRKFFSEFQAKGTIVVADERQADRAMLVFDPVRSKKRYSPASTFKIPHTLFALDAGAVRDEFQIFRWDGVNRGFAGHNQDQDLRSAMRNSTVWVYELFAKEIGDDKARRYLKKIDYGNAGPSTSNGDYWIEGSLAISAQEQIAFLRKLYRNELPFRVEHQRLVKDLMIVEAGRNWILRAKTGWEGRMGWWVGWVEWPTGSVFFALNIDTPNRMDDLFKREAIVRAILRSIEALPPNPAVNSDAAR
Sequence of TEM-1 (P62593 24-286 limits assumed): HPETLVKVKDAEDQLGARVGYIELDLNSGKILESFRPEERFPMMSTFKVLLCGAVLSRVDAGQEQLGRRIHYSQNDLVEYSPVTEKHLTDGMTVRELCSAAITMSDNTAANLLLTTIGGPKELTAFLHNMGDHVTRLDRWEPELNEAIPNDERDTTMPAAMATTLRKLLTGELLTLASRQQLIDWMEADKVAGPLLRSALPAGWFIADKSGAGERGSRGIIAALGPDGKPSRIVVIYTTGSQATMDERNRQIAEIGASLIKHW
Sequence of P99 ampC (P05364 21-381): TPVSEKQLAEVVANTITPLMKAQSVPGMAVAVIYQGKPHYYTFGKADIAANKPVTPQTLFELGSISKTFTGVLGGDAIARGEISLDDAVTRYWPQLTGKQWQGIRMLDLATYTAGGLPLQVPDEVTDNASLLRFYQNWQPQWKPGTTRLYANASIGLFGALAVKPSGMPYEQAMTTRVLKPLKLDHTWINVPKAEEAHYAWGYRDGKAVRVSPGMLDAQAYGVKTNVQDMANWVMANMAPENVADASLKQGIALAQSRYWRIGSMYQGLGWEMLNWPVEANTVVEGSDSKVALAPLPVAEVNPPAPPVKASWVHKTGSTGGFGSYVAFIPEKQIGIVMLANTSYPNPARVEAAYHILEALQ
Sequence of PAE ampC (P24735 27-397): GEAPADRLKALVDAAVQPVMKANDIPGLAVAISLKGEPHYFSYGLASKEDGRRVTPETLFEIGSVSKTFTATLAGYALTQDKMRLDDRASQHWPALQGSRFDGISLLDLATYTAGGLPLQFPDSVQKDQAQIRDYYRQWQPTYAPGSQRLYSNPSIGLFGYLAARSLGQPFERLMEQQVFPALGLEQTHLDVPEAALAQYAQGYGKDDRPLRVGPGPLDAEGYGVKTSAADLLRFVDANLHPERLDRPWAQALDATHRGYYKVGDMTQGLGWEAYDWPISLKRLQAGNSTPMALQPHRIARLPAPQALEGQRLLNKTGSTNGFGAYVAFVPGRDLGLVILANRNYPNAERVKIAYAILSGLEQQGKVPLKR
Sequence of SHV-12 (P0AD64 22-286 L31Q/G234S/E235K): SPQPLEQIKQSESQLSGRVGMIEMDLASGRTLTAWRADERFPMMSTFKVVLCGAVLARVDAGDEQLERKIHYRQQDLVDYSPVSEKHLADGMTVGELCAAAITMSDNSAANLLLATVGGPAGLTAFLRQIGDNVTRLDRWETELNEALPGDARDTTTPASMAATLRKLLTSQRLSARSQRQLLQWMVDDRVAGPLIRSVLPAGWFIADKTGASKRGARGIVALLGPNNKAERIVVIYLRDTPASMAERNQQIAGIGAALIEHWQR
Sequence of SHV-1 (P0AD64 22-286): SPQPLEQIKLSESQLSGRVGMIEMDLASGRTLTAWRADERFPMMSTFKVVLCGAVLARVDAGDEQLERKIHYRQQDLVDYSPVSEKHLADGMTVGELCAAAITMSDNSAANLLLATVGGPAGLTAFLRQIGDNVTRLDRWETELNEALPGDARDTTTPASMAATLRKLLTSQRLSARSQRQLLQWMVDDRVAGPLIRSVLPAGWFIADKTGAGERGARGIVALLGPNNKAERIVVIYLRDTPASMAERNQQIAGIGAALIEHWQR
Sequence of OXA-58 (Q2TR58 19-280): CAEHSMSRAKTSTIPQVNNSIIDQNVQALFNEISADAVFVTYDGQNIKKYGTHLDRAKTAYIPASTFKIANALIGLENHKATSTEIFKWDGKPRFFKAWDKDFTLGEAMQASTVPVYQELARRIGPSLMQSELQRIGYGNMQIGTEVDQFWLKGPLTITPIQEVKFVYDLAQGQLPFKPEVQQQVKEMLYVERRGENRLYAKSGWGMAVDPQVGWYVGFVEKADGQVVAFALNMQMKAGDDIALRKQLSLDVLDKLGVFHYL
Sequence of OXA-11 (Q06778 21-266): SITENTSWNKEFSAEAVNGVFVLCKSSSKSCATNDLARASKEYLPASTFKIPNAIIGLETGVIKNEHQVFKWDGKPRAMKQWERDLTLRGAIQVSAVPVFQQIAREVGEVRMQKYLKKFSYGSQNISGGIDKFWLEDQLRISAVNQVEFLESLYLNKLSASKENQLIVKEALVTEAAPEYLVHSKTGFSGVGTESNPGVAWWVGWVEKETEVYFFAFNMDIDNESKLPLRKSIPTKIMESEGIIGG
Sequence of OXA-1 (P13661 26-276): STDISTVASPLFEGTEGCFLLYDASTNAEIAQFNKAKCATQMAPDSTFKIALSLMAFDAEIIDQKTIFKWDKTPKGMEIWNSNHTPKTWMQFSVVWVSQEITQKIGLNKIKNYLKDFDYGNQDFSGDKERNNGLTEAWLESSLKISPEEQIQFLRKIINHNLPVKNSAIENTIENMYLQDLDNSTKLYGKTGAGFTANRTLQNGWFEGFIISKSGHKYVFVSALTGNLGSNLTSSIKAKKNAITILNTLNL
Sequence of OXA-48 (Q6XEC0 23-265 limits assumed): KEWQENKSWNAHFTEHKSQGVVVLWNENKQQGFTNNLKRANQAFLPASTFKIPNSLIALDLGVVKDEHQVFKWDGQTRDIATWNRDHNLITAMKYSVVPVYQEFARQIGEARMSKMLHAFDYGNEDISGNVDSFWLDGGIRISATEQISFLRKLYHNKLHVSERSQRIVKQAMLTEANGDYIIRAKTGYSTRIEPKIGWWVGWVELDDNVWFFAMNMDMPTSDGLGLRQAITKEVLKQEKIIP
Sequence of SAU PC1 (P00807 25-281): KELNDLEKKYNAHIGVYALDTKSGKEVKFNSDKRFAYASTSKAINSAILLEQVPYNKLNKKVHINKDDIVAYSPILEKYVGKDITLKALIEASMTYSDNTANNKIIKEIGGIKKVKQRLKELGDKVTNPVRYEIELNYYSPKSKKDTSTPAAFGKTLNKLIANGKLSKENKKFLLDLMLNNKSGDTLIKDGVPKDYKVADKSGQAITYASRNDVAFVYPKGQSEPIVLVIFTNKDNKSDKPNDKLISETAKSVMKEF

Structure (SMILES)	IC50 (TEM-1)	IC50 (SHV-1)	IC50 (SHV-12)	IC50 (CTX-M-15)	IC50 (KPC-2)	IC50 (SAU PC1)	IC50 (P99 ampC)	IC50 (PAE ampC)	IC50 (OXA-1)	IC50 (OXA-11)	IC50 (OXA-15)	IC50 (OXA-23)	IC50 (OXA-40)	IC50 (OXA-48)	IC50 (OXA-58)	MIC ([1]; PMI UFR128, alone)	MIC ([1]; PMI UFR129, alone)	MIC ([1]; PMI UFR130, alone)	MIC [1, 5]	MIC [2]	other results
O=C1N2CC(c3ncco3)=CC(C2)N1OC(F)(F)C(=O)[O-].[Li+] (centres unmarked) [AF2]	2.6 nM	12 nM	4.1 nM	1.5 nM	69 nM	220 nM	730 nM	280 nM	2100 nM	84 nM	140 nM	7400 nM	8300 nM	2.4 nM	580 nM	8 µg/mL	4 µg/mL	4 µg/mL	4 µg/mL	16 µg/mL	MIC ([3]; PST UFR94, alone): 16 µg/mL; MIC ([3]; PST UFR95, alone): 32 µg/mL; MIC ([3]; PST UFR120, alone): 8 µg/mL; MIC ([3]; PST UFR121, alone): 4 µg/mL; MIC ([3]; PST UFR122, alone): 4 µg/mL; MIC ([3]; PST UFR123, alone): 8 µg/mL; MIC ([3]; PST UFR124, alone): 8 µg/mL; MIC ([3]; PST UFR125, alone): 8 µg/mL; MIC ([3]; PST UFR235, alone): 16 µg/mL; MIC [3, 6]: 32 µg/mL; MIC [4]: 8 µg/mL
O=C1N2CC(n3cccn3)=CC(C2)N1OC(F)(F)C(=O)[O-].[Li+] (centres unmarked) [AF3]	0.81 nM	6 nM	4.3 nM	0.66 nM	77 nM	120 nM	270 nM	98 nM	1100 nM	40 nM	120 nM	9600 nM	8900 nM	5.1 nM	1000 nM	4 µg/mL	4 µg/mL	4 µg/mL	8 µg/mL	16 µg/mL	MIC ([1]; PMI UFR82, alone): 4 µg/mL; MIC ([1]; PMI UFR126, alone): 4 µg/mL; MIC ([1]; PMI UFR127, alone): 8 µg/mL; MIC ([1]; PMI UFR133, alone): 4 µg/mL; MIC ([1]; PMI UFR237, alone): 8 µg/mL; MIC ([1]; strain PMI UFR131, compound alone): 4 µg/mL; MIC ([3]; PST UFR94, alone): 16 µg/mL; MIC ([3]; PST UFR95, alone): > 32 µg/mL; MIC ([3]; PST UFR120, alone): 8 µg/mL; MIC ([3]; PST UFR121, alone): 8 µg/mL; MIC ([3]; PST UFR122, alone): 4 µg/mL; MIC ([3]; PST UFR123, alone): 4 µg/mL; MIC ([3]; PST UFR124, alone): 8 µg/mL; MIC ([3]; PST UFR125, alone): 4 µg/mL; MIC ([3]; PST UFR235, alone): 16 µg/mL; MIC [3, 6]: 16 µg/mL; MIC [4]: 8 µg/mL

From patent US20200017495A1, “NOVEL HETEROCYCLIC COMPOUNDS AND THEIR USE IN PREVENTING OR TREATING BACTERIAL INFECTIONS” (priority 2017, published 2020)
